Data on 56 compounds can be found in the Kinase Knowledgebase extract (Sharma et al. 2016).

Usually IC50 stands for the concentration that inhibits the measured activity by half.

SMILES strings stand for the structures.

For this test, the target named is CDK2 (human) (UniProt P24941). Briefly: Enzyme Assay.
Consider `CC(C)c1cnn2c(NCc3cc(F)ccc3-n3cccn3)nc(O[C@@H]3CCCNC3)nc12`, for which the IC50 is no more than 50 nM.
`CC(C)c1cnn2c(NCc3ccccc3S(C)(=O)=O)nc(O[C@@H]3CCCNC3)nc12` showed a concentration for half-maximal inhibition (IC50) of 50 to 500 nM.
For the compound `CC(C)c1cnn2c(NCc3ccccc3-c3nnnn3C)nc(O[C@@H]3CCCNC3)nc12`, the IC50 was in the range of 50 to 500 nM.
As for `CC(C)c1cnn2c(NCc3ccccc3-n3ccnc3)nc(O[C@@H]3CCNC3)nc12`, the figure is 50 to 500 nM.
`CC(C)c1cnn2c(NCc3ccccc3Br)nc(O[C@@H]3CCCNC3)nc12` registered a half-inhibitory concentration (IC50) of 50 to 500 nM.
The value for `CC(C)c1cnn2c(NCc3ccccc3-n3cccn3)nc(S[C@@H]3CCCNC3)nc12` was 50 to 500 nM.
`CC(C)c1cnn2c(NCc3ccccc3S(=O)(=O)N3CCN(C)CC3)nc(O[C@@H]3CCCNC3)nc12` had a half-inhibitory concentration (IC50) of 50 to 500 nM.
The value for `CC(C)c1cnn2c(NCc3c(F)cccc3-n3cccn3)nc(O[C@@H]3CCCNC3)nc12` was 50 to 500 nM.
The value for `CC(C)c1cnn2c(NCc3cccc4cccnc34)nc(O[C@@H]3CCCNC3)nc12` was 50 to 500 nM; that for `CC(C)c1cnn2c(NCc3ccccc3OS(C)(=O)=O)nc(O[C@@H]3CCCNC3)nc12` was 50 to 500 nM; that for `CC(C)c1cnn2c(NCc3ccccc3-n3cccn3)nc(N3CCC(N(C)C)CC3)nc12` was 50 to 500 nM.
The value for `CC(C)c1cnn2c(NCc3ccccc3-n3cncn3)nc(OC3CCNCC3)nc12` was 50 to 500 nM.
`CNC1CCN(c2nc(NCc3ccccc3-n3cccn3)n3ncc(C(C)C)c3n2)CC1` displayed a concentration for half-maximal inhibition (IC50) of 50 to 500 nM.
As for `CC(C)c1cnn2c(NCc3ccccc3-n3cncn3)nc([S+]([O-])C3CCNCC3)nc12` (stereo unspecified), the figure is 50 to 500 nM.
As for `CC(C)c1cnn2c(NCc3ccccc3OS(=O)C(C)(C)C)nc(O[C@@H]3CCCNC3)nc12` (stereo partly specified), the figure is 50 to 500 nM.
The compound `CC(C)c1cnn2c(NCc3ccc(F)cc3-n3cccn3)nc(O[C@@H]3CCCNC3)nc12` gave a 50% inhibitory concentration (IC50) of no more than 50 nM.
As for `CC(C)c1cnn2c(NCc3ccccc3-n3cccn3)nc(NC3CCCNC3)nc12` (stereo unspecified), the figure is 50 to 500 nM.
`CC(C)c1cnn2c(NCc3ccccc3-n3cncn3)nc(O[C@@H]3CCNC3)nc12` yielded an IC50 of no more than 50 nM.
The value for `CC(C)c1cnn2c(NCc3cccc4c3OCCCO4)nc(O[C@@H]3CCCNC3)nc12` was 50 to 500 nM; that for `CC(C)c1cnn2c(NCc3ccccc3-n3cccn3)nc(O[C@@H]3CCNC3)nc12` was no more than 50 nM; that for `CC(C)c1cnn2c(NCc3cccc4cc[n+]([O-])cc34)nc(O[C@@H]3CCCNC3)nc12` was 50 to 500 nM.
The value for `CC(C)c1cnn2c(NCc3ccccc3-n3cccn3)nc(O[C@@H]3CCCNC3)nc12` was no more than 50 nM.
As for `CC(C)c1cnn2c(NCc3ccccc3C(N)=O)nc(O[C@@H]3CCCNC3)nc12`, the figure is 50 to 500 nM.
The compound `CC(C)c1cnn2c(NCc3ccccc3OC(F)F)nc(OC3CCN(C)CC3)nc12` gave an IC50 of 50 to 500 nM.
The value for `CC(C)c1cnn2c(NCc3ccccc3-c3cccs3)nc([S+]([O-])C3CCNCC3)nc12` (stereo unspecified) was 50 to 500 nM.
The value for `CC(C)c1cnn2c(NCc3cccc4[nH]ncc34)nc(O[C@@H]3CCCNC3)nc12` was no more than 50 nM; that for `CC(C)c1cnn2c(NCc3ccccc3-n3cccn3)nc([S+]([O-])C3CCNCC3)nc12` (stereo unspecified) was 50 to 500 nM.
As for `CC(C)c1cnn2c(NCc3ccccc3-c3cccs3)nc(O[C@@H]3CCCNC3)nc12`, the figure is no more than 50 nM.
`CC(C)c1cnn2c(NCc3ccccc3S(=O)(=O)N3CCCC3)nc(O[C@@H]3CCCNC3)nc12` registered a 50% inhibitory concentration (IC50) of 50 to 500 nM.
`CC(C)c1cnn2c(NCc3cccc4ccncc34)nc(O[C@@H]3CCCNC3)nc12` displayed a half-inhibitory concentration (IC50) of 50 to 500 nM.
As for `CSc1ccccc1CNc1nc(O[C@@H]2CCCNC2)nc2c(C(C)C)cnn12`, the figure is 50 to 500 nM; as for `CNC(=O)c1ccccc1CNc1nc(O[C@@H]2CCCNC2)nc2c(C(C)C)cnn12`, 50 to 500 nM.
The value for `CC(C)c1cnn2c(NCc3ccccc3-c3cccs3)nc(OC3CCN(C)CC3)nc12` was 50 to 500 nM.
As for `CC(C)Oc1ccccc1CNc1nc(O[C@@H]2CCCNC2)nc2c(C(C)C)cnn12`, the figure is 50 to 500 nM.
Turning to `CC(C)c1cnn2c(NCc3ccccc3Cl)nc(OC3CCN(C)CC3)nc12`, the half-maximal inhibitory concentration (IC50) fell in the range of 50 to 500 nM.
As for `CC(C)c1cnn2c(NCc3ccccc3-c3cccs3)nc(OC3CCNCC3)nc12`, the figure is 50 to 500 nM; as for `CC(C)c1cnn2c(NCc3ccccc3C(F)(F)F)nc(OC3CCN(C)CC3)nc12`, no more than 50 nM.
On to `CNS(=O)(=O)c1ccccc1CNc1nc(O[C@@H]2CCCNC2)nc2c(C(C)C)cnn12`, for which the IC50 lay within 50 to 500 nM.
`CC(C)c1cnn2c(NCc3cccc(F)c3-n3cccn3)nc(O[C@@H]3CCCNC3)nc12` came in with an IC50 of no more than 50 nM.
On to `CC(C)c1cnn2c(NCc3ccccc3-c3cccs3)nc(O[C@@H]3CCNC3)nc12`, for which the IC50 is 50 to 500 nM.
The value for `CC(C)c1cnn2c(NCc3cccc(Cl)c3Cl)nc(O[C@@H]3CCCNC3)nc12` was 50 to 500 nM.
In the case of `CC(C)c1cnn2c(NCc3ccccc3-c3nnn(C)n3)nc(O[C@@H]3CCCNC3)nc12`, the IC50 is no more than 50 nM.
As to `CC(C)c1cnn2c(NCc3ccccc3-n3cccn3)nc(OC3C[C@H]4CNC[C@@H]34)nc12` (stereo partly specified), the IC50 is 50 to 500 nM.
As for `CC(C)c1cnn2c(NCc3ccccc3S(=O)(=O)N(C)C)nc(O[C@@H]3CCCNC3)nc12`, the figure is 50 to 500 nM; as for `CC(C)c1cnn2c(NCc3ccccc3-n3cccn3)nc(OC3CCNCC3)nc12`, 50 to 500 nM.
`CC(C)c1cnn2c(NCc3ccccc3-n3cccn3)nc(OC3C=CCNC3)nc12` (stereo unspecified) showed an IC50 of 50 to 500 nM.
As for `CC(C)c1cnn2c(NCc3ccccc3-n3cc(Cl)cn3)nc(O[C@@H]3CCCNC3)nc12`, the figure is 50 to 500 nM; as for `COc1ccccc1CNc1nc(OC2CCN(C)CC2)nc2c(C(C)C)cnn12`, 50 to 500 nM.
The value for `CC(C)c1cnn2c(NCc3ccccc3-n3cncn3)nc(N[C@@H]3CCCNC3)nc12` was no more than 50 nM; that for `CC(C)c1cnn2c(NCc3ccccc3[S+](C)[O-])nc(O[C@@H]3CCCNC3)nc12` (stereo partly specified) was 50 to 500 nM; that for `CC(C)c1cnn2c(NCc3ccccc3-c3ccccn3)nc(O[C@@H]3CCCNC3)nc12` was 50 to 500 nM.
`CC(C)c1cnn2c(NCc3ccccc3-n3cccn3)nc(NC3CCNC3)nc12` (stereo unspecified) came in with a half-inhibitory concentration (IC50) of 50 to 500 nM.
On to `CC(C)c1cnn2c(NCc3cccc4c3cnn4C)nc(O[C@@H]3CCCNC3)nc12`, for which the 50% inhibitory concentration (IC50) was no more than 50 nM.
As for `CC(C)c1cnn2c(NCc3ccccc3-n3cncn3)nc(OC3CCN(C)CC3)nc12`, the figure is 50 to 500 nM; as for `CC(C)c1cnn2c(NCc3ccccc3-n3ccnc3)nc(O[C@@H]3CCCNC3)nc12`, 50 to 500 nM; as for `CC(C)c1cnn2c(NCc3ccccc3N3CCCC3=O)nc(O[C@@H]3CCCNC3)nc12`, 50 to 500 nM.
